{
  "source": "patent US20110300570A1",
  "about": "“METHOD AND SYSTEM FOR GENERATING SPATIALLY AND TEMPORALLY CONTROLLABLE CONCENTRATION GRADIENTS” (THE BRIGHAM AND WOMEN'S HOSPITAL, INC., priority 2008, published 2011)",
  "key": {"HL-1 cells [1]": {"tested_on": "HL-1 cells", "test": "Cytotoxicity testing of a stabilized toxin concentration gradient on HL-1 cells in the microfluidic channel", "type": "cell-based", "experimental": "HL-1 cells (Cardiac muscle cell line) were cultured with medium containing 87% Claycomb Medium, 10% Fetal Bovine Serum (FBS), 1% Penicillin/Streptomycin, 1% Norepinephrine, and 1% L-Glutamine at 37° C. in a humidified 5% CO2/95% air incubator. To enhance the cell adhesion, the bottom glass slide was coated with a mixture of extracellular matrix (0.02% gelatin (w/w) and 5 μg/mL fibronectin) after the top channel was bonded to the bottom glass slide. To seed the cells into the microfluidic device, the cells were trypsinized and seeded through the outlet port using dynamic seeding at a cell density of 2×10^6 cells mL-1 that allowed uniform cell distribution. Cells were cultured for 2 h to ensure attachment. The medium was then changed and 3 drops of 2 μL medium containing 20 mM Alpha-cypermethrin were introduced by passive pumping and a concentration gradient was established by leaving the microfluidic device in the hood for 5 min to allow for evaporation-induced backflow. The microfluidic device was then transferred to a humidified incubator where the concentration gradient of the toxin was stabilized and the cells were treated for 4 h. […] ImageJ was used to quantify the fluorescence images of live-dead staining of the cells. At least three images were used for quantification of the cell viability. […]"}, "HL-1 cells [2]": {"tested_on": "HL-1 cells", "test": "Cytotoxicity testing with HL-1 cells seeded in a 96-well plate", "type": "cell-based", "conditions": "HL-1 cells in 96-well plate, various concentrations of toxin", "experimental": "In this example, the stabilized, spatially and temporally controllable concentration gradient technique is utilized for cytotoxicity testing. A cardiac muscle cell line (HL-1) is used to investigate the cytotoxicity of Alpha-cypermethrin, a cardiac toxin. Three drops of 2 μL medium containing 20 mM Alpha-cypermethrin were loaded consecutively into the micro-devices with HL-1 cells seeded along the channel. […] The cytotoxicity of the toxin gradient was further tested on the HL-1 cells by conducting a live-dead assay. […] According to the correlation between cell viability and morphology changes with respect to Alpha-cypermethrin concentration obtained from the toxicity testing on HL-1 cells seeded in 96-well plates, the experimental conditions used in this example established a concentration gradient of the toxin from 12.5 mM to 0 mM along the 5 cm-length channel based on the assay conducted in this example."}},
  "data": [
    {"smiles": "CC1(C)C(C=C(Cl)Cl)C1C(=O)OC(C#N)c1cccc(Oc2ccccc2)c1", "note": "(stereo not drawn) [Alpha-cypermethrin]", "values": [
      {"measurement": "cell morphology along the channel", "setting": "HL-1 cells [1]; HL-1 cells exposed 4 h to toxin gradient (loaded 20 mM; gradient 12.5 mM to 0 mM along 5 cm channel)", "value": "more severe effects observed in the regions containing higher concentrations of toxin"},
      {"measurement": "cell viability (live-dead assay)", "setting": "HL-1 cells [1]; HL-1 cells exposed 4 h to toxin gradient along the channel", "value": "correlation of cell viability was found with the toxin concentration gradient"},
      {"measurement": "cell morphology", "setting": "HL-1 cells [2]", "value": "drastic morphological change"}
    ]}
  ]
}
